# Like-named read-outs stand apart in the source and are kept apart here.
# What was measured:
# [1] = biological target: T1, serotonin S2 (5-HT2) receptors (Rattus norvegicus, UniProt P14842); experiment: inhibition of 3H-ketanserin binding to serotonin S2 (5-HT2) receptors in rat cortex in vitro; conditions: 3H-ketanserin 0.5 nM, rat cortex membranes, read-out: Binding IC50, 3H Ket.
# T1 construct: cortical tissue is dissected and weighed; from tissue; host or cells: cerebral cortex membranes of male Wistar (Mol:Wist) rats
# Protocol: Method in Hyttel, Pharmacology & Toxicology, 61, 126-129. 1987.
# Male Wistar (Mol:Wist) rats (125-250 g) are sacrifices and cortical tissue is dissected and weighed. The tissue is homogenized (Ultra Turrax, 10 sec.) in 10 ml of ice-cold 50 mM tris buffer pH 7.7 (at 25° C.). The centrifuge glassware used in this step has been rinsed by sonication for 10 min. in ethanol. The homogenate is centrifuged twice at 20,000 g for 10 min. at 4° C. with rehomogenization of the pellet in 10 ml ice-cold buffer. The final pellet is homogenized in 500 vol (w/v) ice-cold buffer.
# Incubation tubes kept on ice in triplicate receive 100 μl of drug solution in water (or water for total binding) and 2000 μl of tissue suspension (final tissue content corresponds to 4 mg original tissue). […] After incubation for 30 min. the samples are filtered under vacuum (0-50 mBar) through Whatman GF/F filters (25 mm). The tubes are rinsed with 5 ml ice-cold buffer which are then poured on the filters. Thereafter, the filters are washed with 2×5 ml of buffer. The filters are placed in counting vials and 4 ml of appropriate scintillation fluid (e.g., Picofluor™15) are added. After shaking for 1 h and storage 2 hrs in the dark the content of radioactivity is determined by liquid scintillation counting. Specific binding is obtained by subtracting the nonspecific binding in the presence of 1 μM mianserin. For determination of the inhibition of binding five concentrations of drugs covering 3 decades are used.
# The IC50 value is determined as the concentration at which the binding is 50% of the total binding in control samples minus the nonspecific binding in the presence of 1 μM mianserin.
# [2] = biological target: T2, dopamine D-2 receptors (Rattus norvegicus, UniProt P61169); experiment: inhibition of 3H-spiperone binding to dopamine D-2 receptors in rat corpus striatum in vitro
# T2 construct: striatal tissue is dissected and weighed; from tissue; host or cells: corpus striatum membranes of male Wistar rats
# Protocol: INHIBITION OF ^3 H-SPIPERONE BINDING TO DOPAMINE D-2 RECEPTORS IN RAT CORPUS STRIATUM IN VITRO
# By this method the inhibition by drugs of the binding of ^3 H-spiperone (0.5 nM) to dopamine D-2 receptors in membranes from rat corpus striatum is determined in vitro. Method and results in Hyttel and Larsen, J. Neurochem, 44, 1615-1622, 1985).
# (§1) Male Wistar (Mol:Wistar) rats (125-250 g) are sacrificed and striatal tissue is dissected and weighed. The tissue is homogenized (Ultra Turrax, 10 sec.) in 10 ml of ice-cold 50 mM K-phosphate buffer pH 7.4 (at 25° C.). The homogenate is centrifuged twice at 20,000 g for 10 min. at 4° C. with rehomogenization of the pellet in 10 ml ice-cold buffer. The final pellet is homogenized in 1300 vol (w/v) ice-cold buffer.
# Incubation tubes kept on ice in triplicate receive 100 μl of drug solution in water (or water for total binding) and 4000 μl of tissue suspension (final tissue content corresponds to 3.08 mg original tissue). The binding experimental is initiated by addition of 100 μl of ^3 H-spiperone (final concentration 0.5 nM) and by placing the tubes in a 37° C. water bath. After incubation for 10 min. the samples are filtered under vacuum (0-50 mBar) through Whatman GF/F filters (25 mm). The tubes are rinsed with 5 ml ice-cold buffer which are then poured on the filters. Thereafter, the filters are washed with 2×5 ml of buffer. The filters are placed in counting vials and 4 ml of appropriate scintillation fluid (e.g. Picofluor ™15) are added. After shaking for 1 h and storage 2 hrs in the dark the content of radioactivity is determined by liquid scintillation counting. Specific binding is obtained by subtracting the nonspecific binding in the presence of 10 μM of 6,7-ADTN.
# (§2) For determination of the inhibition of binding five concentrations of drugs covering 3 decades are used.
# England, specific activity 15-25 Ci/mmol.
# [3] = biological target: α1 adrenoceptors; experiment: inhibition of 3H-prazosin binding to α1 adrenoceptors in rat brain in vitro; conditions: 3H-prazosin 0.25 nM, rat brain membranes, read-out: Binding IC50, 3H Praz.
# Protocol: INHIBITION OF ^3 H-PRAZOSIN BINDING TO α1 ADRENOCEPTORS IN RAT BRAIN IN VITRO
# Method and results in Hyttel and Larsen, J. Neurochem, 44, 1615-1622, 1985; Skarsfeldt and Hyttel, Eur. J. Pharmacol. 125, 323-340, 1986.
# as §1, with “(Mol:Wist)” for “(Mol:Wistar)”, “(125-200” for “(125-250”, “brain” for “striatal”, “[…] Tris” for “mM K-phosphate”, “7.7” for “7.4”, “400” for “1300”
# Incubation tubes kept on ice in triplicate receive 100 μl of drug solution in water (or water for total binding) and 4000 μl of tissue suspension (final tissue content corresponds to 10 mg original tissue). The binding experiment is initiated by addition of 100 μl of ^3 H-Prazosin (final concentration 0.25 nM) and by placing the tubes in a 25° C. water bath. After incubation for 20 min. the samples are filtered under vacuum (0-50 mBar) through Whatman GF/F filters (25 mm). The tubes are rinsed with 5 ml ice-cold buffer which then are poured on the filters. Thereafter, the filters are washed with 5 ml of buffer. The filters are placed in counting vials and 4 ml of appropriate scintillation fluid (e.g. Picofluor™15) are added. After shaking for 1 h and storage 2 hrs in the dark the content of radioactivity is determined by liquid scintillation counting. Specific binding is obtained by subtracting the nonspecific binding in the presence of 1 μM of Prazosin.
# as §2
# The measured cpm are plotted against drug concentration on semilogarithmic paper and the best fitting S-shaped curve is drawn. The IC50 value is determined as the concentration at which the binding is 50% of the total binding in control samples minus the nonspecific binding in the presence of 1 μM of Prazosin. ^3 H-Prazosin=[furoyl-5-^3 H]-Prazosin from New England Nuclear, specific activity approximately 20 Ci/mmol.
# [4] = biological target: T3, 5-HT2 (Rattus norvegicus, UniProt P14842); experiment: quipazine inhibition (quipazine-induced head twitches in rats); assay type: in vivo
# T3 construct: Four rats, male Wistar (Mol:Wist) SPF rats weighing 170-240 g; from tissue; host or cells: living male Wistar (Mol:Wist) SPF rats (in vivo, endogenous receptor)
# Protocol: Quipazine is a 5-HT2 agonist, which induces head twitches in rats. The test is a test for 5-HT2 -antagonistic effect testing the ability to inhibit head twitches. The method and test results for some reference substances are published by Arnt et al. (Drug Development Research, 16, 59-70, 1989).
# Test substance is injected s.c. 2 hrs before or p.o. 24 hrs before quipazine administration (6.8 mg/kg, s.c., dimaleate). Four rats, male Wistar (Mol:Wist) SPF rats weighing 170-240 g, are used at each dose level. A control group is included each test day. By repeated testing (2, 24 hrs) the control group is the same, however. After quipazine administration the rats are individually placed in the observation cages and head twitches are counted in an observation period of 30-40 min. after injection of quipazine.
# Total number of head twitches in each group is calculated and the result for each dose is expressed as per cent of the response in the control group. ED50 values are calculated by log-probit analysis. The test must be repeated if the average number of head twitches is lower than 9 in the control group.
# [5] = 3H-spiperone 0.5 nM, rat corpus striatum membranes, in vitro, read-out: Binding IC50, 3H Spi.
# [6] = sc, 2 h, read-out: Quipazine inhibition ED50, 2h (sc)
# T1 sequence (P14842 whole entry): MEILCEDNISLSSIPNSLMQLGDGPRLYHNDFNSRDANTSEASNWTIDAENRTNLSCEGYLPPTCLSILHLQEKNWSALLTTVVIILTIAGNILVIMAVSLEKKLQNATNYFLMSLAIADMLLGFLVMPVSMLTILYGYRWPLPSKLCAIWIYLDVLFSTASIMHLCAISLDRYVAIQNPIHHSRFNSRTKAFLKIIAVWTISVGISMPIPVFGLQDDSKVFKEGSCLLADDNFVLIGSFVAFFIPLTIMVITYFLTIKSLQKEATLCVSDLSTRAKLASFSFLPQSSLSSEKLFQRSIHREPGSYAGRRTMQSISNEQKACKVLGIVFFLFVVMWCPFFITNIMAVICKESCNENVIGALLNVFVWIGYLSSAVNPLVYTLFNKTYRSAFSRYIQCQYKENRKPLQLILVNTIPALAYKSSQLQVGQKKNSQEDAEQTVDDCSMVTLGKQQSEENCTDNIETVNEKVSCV
# T3 sequence (P14842 whole entry): as above
# T2 sequence (P61169 whole entry): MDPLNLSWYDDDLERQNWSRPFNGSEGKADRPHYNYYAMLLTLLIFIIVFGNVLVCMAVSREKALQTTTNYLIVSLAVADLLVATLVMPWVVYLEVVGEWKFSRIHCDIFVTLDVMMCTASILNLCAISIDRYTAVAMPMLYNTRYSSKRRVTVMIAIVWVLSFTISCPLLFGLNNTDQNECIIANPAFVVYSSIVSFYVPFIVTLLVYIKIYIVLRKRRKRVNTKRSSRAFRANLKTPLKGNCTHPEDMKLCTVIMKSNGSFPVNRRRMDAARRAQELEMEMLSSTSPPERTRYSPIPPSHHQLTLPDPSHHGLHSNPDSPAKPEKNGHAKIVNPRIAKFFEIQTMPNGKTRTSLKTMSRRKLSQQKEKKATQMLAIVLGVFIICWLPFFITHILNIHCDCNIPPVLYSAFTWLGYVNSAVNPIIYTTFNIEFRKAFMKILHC
SMILES,IC50 [1],IC50 [2],IC50 [3],"IC50 [2, 5]","ED50 ([4]; po, 24 h, read-out: Quipazine inhibition ED50, 24h (po))","ED50 [4, 6]"
"CC(C)N1CCN(CCN2CC=C(c3cn(-c4ccc(F)cc4)c4cc(Cl)ccc34)CC2)C1=O [Compound 2a, 6-chloro-1-(4-fluorophenyl)-3-[1-[2-[3-(2-propyl)-2-imidazolidinon-1-yl]ethyl]-1,2,3,6-tetrahydropyridin-4-yl]-1H-indole]",3.5 nM,66 nM,55 nM,–,–,–
"CC(C)N1CCN(CCN2CCC(c3cn(-c4ccc(F)cc4)c4cc(C(F)(F)F)ccc34)CC2)C1=O [Compound 4c, 1-(4-fluorophenyl)-3-[1-[2-[3-(2-propyl)-2-imidazolidinon-1-yl]ethyl]-4-piperidyl]-6-trifluoromethyl-1H-indole]",2.9 nM,–,91 nM,280 nM,–,–
"O=C1CCCN1CCN1CCC(c2cn(-c3ccc(F)cc3)c3cc(C(F)(F)F)ccc23)CC1 [Compound 4e, 1-(4-fluorophenyl)-3-[1-[2-(2-pyrrolidinon-1-yl)ethyl]-4-piperidyl]-6-trifluoromethyl-1H-indole]",2.8 nM,–,49 nM,300 nM,–,–
"COc1ccc2c(C3CCN(CCN4CCN(C(C)C)C4=O)CC3)cn(-c3ccc(F)cc3)c2c1 [Compound 4i, 1-(4-fluorophenyl)-6-methyoxy-3-[1-[2-[3-(2-propyl)-2-imidazolidinon-1-yl]ethyl]-4-piperidyl]-1H-indole]",7.1 nM,–,140 nM,710 nM,–,–
"CC(C)c1ccc2c(C3CCN(CCN4CCN(C(C)C)C4=O)CC3)cn(-c3ccc(F)cc3)c2c1 [Compound 5c, 1-(4-fluorophenyl)-6-(2-propyl)-3-[1-[2-[3-(2-propyl)-2-imidazolidinon-1-yl]ethyl]-4-piperidyl]-1H-indole]",16 nM,–,730 nM,2000 nM,–,–
"Cc1ccc2c(C3CCN(CCNC(=O)NC(C)C)CC3)cn(-c3ccc(F)cc3)c2c1 [Compound 9a, 1-(4-fluorophenyl)-3-[1-[2-[3-(2-propyl)-1-ureido]-1-ethyl]-4-piperidyl]-6-methyl-1H-indole]",1.8 nM,–,76 nM,300 nM,–,–
"Cc1ccc2c(C3CCN(CCNC(=O)N(C)C)CC3)cn(-c3ccc(F)cc3)c2c1 [Compound 9b, 3-[1-[2-(3,3-dimethyl-1-ureido)-1-ethyl]-4-piperidyl]-1-(4-fluorophenyl)-6-methyl-1H-indole]",2.6 nM,–,–,–,< 0.14 µmol/kg,0.12 µmol/kg
"CC(C)N1CCN(CCN2CCC(c3cn(-c4ccc(F)cc4)c4cc(Cl)ccc34)CC2)C1=S [Compound 13a, 6-chloro-1-(4-fluorophenyl)-3-[1-[2-[3-(2-propyl)-2-imidazolidinthion-1-yl]ethyl]-4-piperidyl]-1H-indole]",4.4 nM,–,110 nM,270 nM,–,–
"Cc1ccc2c(C3CCN(CCN4CCN(C(C)C)C4=O)CC3)cn(-c3ccsc3)c2c1 [Compound 15c, 6-methyl-3-[1-[2-[3-(2-propyl)-2-imidazolidinon-1-yl]ethyl]-4-piperidyl]-1-(3-thie-nyl)-1H-indole]",2.6 nM,–,330 nM,1000 nM,–,–
"Cc1ccc2c(C3CCN(CCN4CCN(C(C)C)C4=O)CC3)cn(-c3ccccc3F)c2c1 [Compound 15f, 1-(2-fluorophenyl)-3-[1-[2-[3-(2-propyl)-2-imidazolidinon-1-yl]ethyl]-4-piperidyl]-6-methyl-1H-indole]",2.5 nM,–,370 nM,730 nM,–,–
"Cc1ccc2c(C3CCN(CCN4CCN(C(C)C)C4=O)CC3)cn(-c3cccc(F)c3)c2c1 [Compound 15g, 1-(3-fluorophenyl)-3-[1-[2-[3-(2-propyl)-2-imidazolidinon-1-yl]ethyl]-4-piperidyl]-6-methyl-1H-indole]",11 nM,–,670 nM,3200 nM,–,–
"Cc1ccc2c(C3CCN(CCN4CCN(C(C)C)C4=O)CC3)cn(-c3ccc(Cl)cc3)c2c1 [Compound 15h, 1-(4-chlorophenyl)-3-[1-[2-[3-(2-propyl)-2-imidazolidinon-1-yl]ethyl]-4-piperidyl]-6-methyl-1H-indole]",6 nM,–,450 nM,620 nM,–,–
"Cc1ccc2c(c1)N(c1ccc(F)cc1)CC2C1CCN(CCN2CCN(C(C)C)C2=O)CC1 (stereo not drawn) [Compound 20a, 1-(4-fluorophenyl)-6-methyl-3-[1-[2-[3-(2-propyl)-2-imidazolidinon-1-yl]ethyl]-4-piperidyl]-2,3-dihydro-1H-indole]",5.3 nM,–,–,180 nM,–,0.49 µmol/kg
"Cc1c(C2CCN(CCN3CCNC3=O)CC2)c2ccccc2n1-c1ccc(F)cc1 [Compound 24c, 1-(4-fluorophenyl)-3-[1-[2-(2-imidazolidinon-1-yl)ethyl]-4-piperidyl]-2-methyl-1H-indole]",0.69 nM,–,61 nM,380 nM,–,–

# Reference: patent publication US5216001A, “Indole derivatives” (H. Lunbeck A/S, priority 1990, dated 1993)
